Experimental data reported in patent US20060241108A1, “Substituted phenoxazines and acridones as inhibitors of AKT” (St. Jude Children's Research Hospital, priority 2005, published 2006).

Key:
Format in all cases: cell-based, human
[1] = system: AKT, mTOR and rpS6; test: IGF-1-induced phosphorylation of AKT, mTOR and rpS6 in serum-starved Rh30 cells
Description: (§1) Cellular screening for inhibitors. Rh1, Rh18 and Rh30 cells can each be seeded at a density of 4×10^6/10-cm plate in serum-free medium for overnight attachment. The cells can then be exposed to 0.1% DMSO or to a test compound (for example, a phenoxazine or acridone compound) for one hour, then stimulated with Insulin-like growth factor-I (IGF-I) (10 ng/ml) for 10 minutes.
(§2) Western blot analysis. Cells are rapidly washed with ice-cold phosphate-buffered saline (PBS), placed on ice, and lysed in mammalian protein extraction reagent (M-PER; available from Pierce, Rockford, Ill.) containing one Complete™ mini protease inhibitor tablet (available from Boehringer Mannheim, Mannheim, Germany), 1 mM phenylmethylsulfonyl fluoride, 1 mM Na3VO4 and 1 mM NaF. Cellular debris is pelleted by centrifugation at 17,500×g for 10 minutes at 4° C. The protein concentration of the supernatants is measured by the bicinchoninic acid assay (e.g., using the BCA™ Protein Assay Kit, Pierce, Rockford, Ill., catalog number 23225 or 23227) using bovine serum albumin as the standard. […]

[2] = system: AKT, mTOR and rpS6; test: IGF-1-induced phosphorylation of AKT, mTOR and rpS6 in serum-starved Rh18 cells
Description: as §1, §2

[3] = system: Rh1, Rh18 and/or Rh30 cells; test: Determination of apoptosis, cell line not specified for the result
Text: Determination of apoptosis.
Similar experiments can be performed using compounds that are relatively poor inhibitors of AKT in vitro but, preferably, are chemically similar to the phenoxazine or other compounds tested that are effective inhibitors of AKT. For example, the apoptosis of cells in response to the phenoxazine compound 12B or 20B, which are relatively poor inhibitors of AKT in vitro, can be compared to apoptosis of cells in response to the chemically similar compounds 10B and/or 15B, which are effective AKT inhibitors. In this way, a skilled practitioner can evaluate whether apoptosis observed in response to an effective AKT inhibitor (e.g., apoptosis observed in response to compound 10B or 15B) is due to a general toxic effect rather than AKT inhibition.

[4] = system: AKT; test: Inhibition of IGF-I stimulated AKT phosphorylation (Ser473) in Rh1 cells, Western blot; conditions: 5 μM, 1 hour, serum starved Rh1 cells, IGF-I 10 ng/ml 10 minutes; average of two experiments
Description: Cell lines and growth conditions. The human cell lines Rh1, Rh18, and Rh30 (ATCC Deposit # CRL 2061) have been described, e.g., by Hazelton et al. Cancer Res 1987;47:4501-4507 and Hosoi et al. Cancer Res. 1999;59:886-894. Rh1, Rh18 and Rh30 cells can each be grown in antibiotic free RPMI-1640 medium (available from BioWhittaker, Walkersville, Md.), supplemented with 10% fetal bovine serum (available from HyClone Laboratories, Logan, Utah) and 2 mM L-glutamine (available from BioWhittaker, Walkersville, Md.) at 37° C. in an atmosphere of 5% CO2. For serum free experiments, cells can be cultured in modified N2E (MN2E) medium (DMEM/F-12, 1:1 mixture) (Sigma, St. Louis, Mo.) supplemented with 1 μg/ml human holo transferrin, 30 nM sodium selenite, 20 nM progesterone, 100 μM putrescine, 30 nM vitamin E phosphate, and 50 μM ethanolamine. Cells in MN2E medium containing 5 μg/ml bovine fibronectin (available from Sigma, St. Louis, Mo.) are preferably plated, and allowed to attach overnight at 37° C. in a humidified, 5% CO2 atmosphere.
as §1
Western blot analysis. Cells are rapidly washed with ice-cold phosphate-buffered saline (PBS), placed on ice, and lysed in mammalian protein extraction reagent (M-PER; available from Pierce, Rockford, Ill.) containing one Complete™ mini protease inhibitor tablet (available from Boehringer Mannheim, Mannheim, Germany), 1 mM phenylmethylsulfonyl fluoride, 1 mM Na3VO4 and 1 mM NaF. Cellular debris is pelleted by centrifugation at 17,500×g for 10 minutes at 4° C. The protein concentration of the supernatants is measured by the bicinchoninic acid assay (e.g., using the BCA™ Protein Assay Kit, Pierce, Rockford, Ill., catalog number 23225 or 23227) using bovine serum albumin as the standard.
For the analysis of AKT, ERK-1/2, mTOR, p70S6 kinase, ribosomal protein S6 (rpS6 or S6), and glycogen synthase kinase 3 (GSK-3), equivalent amounts of protein can be separated on a 12% SDS-polyacrylamide gel (available from BioRad, Hercules, Calif.) by electrophoresis and subsequently transferred to a nitrocellulose membrane (also available from BioRad). After a 1 hour incubation in 1×TBS containing 0.05% Tween 20 and 5% blocking reagent (skim milk) (available from Upstate Biotechnology, Lake Placid, N.Y.) at room temperature, the wet nitrocellulose membranes are incubated with appropriate antibodies (available from Cell Signaling Technology, Beverly, Mass.): rabbit polyclonal antiserum specific for the phosphorylated Ser473 or Thr308 of AKT (dilution 1:1000); rabbit polyclonal antiserum specific for phosphorylated Thr202/Tyr204 of ERK-1/2 (dilution 1:1000); rabbit polyclonal antiserum specific for phosphorylated Ser2448 or Ser2481 of mTOR (dilution 1:1000); rabbit polyclonal antiserum specific for phosphorylated Thr389 of p70S6 kinase (dilution 1:4000); rabbit polyclonal antiserum specific for phosphorylated Ser235/236 of rpS6 (dilution 1:1000); or rabbit polyclonal antiserum specific for phosphorylated Ser21/9 of GSK-3α/β (dilution 1:1000). Horseradish peroxidase-conjugated goat anti-rabbit IgG antibody (dilution 1:10,000) can be used as the secondary antibody. Immunoreactive protein can be visualized using Renaissance chemiluminescence reagent (available from Life Science Products Inc., Boston, Mass.).
For these assays, Rh1 cells are seeded in serum-free medium for overnight attachment. The serum starved Rh1 cells are then exposed to 1-5 μM of a compound in Table I for 1 hour before stimulating with IGF-I (10 ng/ml) for 10 minutes. […]

Q: With “10-(N-pyrrolidinoacetyl)-2-chlorophenoxazine [Compound 20B]” as the substance, how does the “block of IGF-1-induced phosphorylation of AKT, mTOR and rpS6” value [1] read?
A: Its value is “possible exception”.

Q: What about the “block of IGF-1-induced phosphorylation of AKT, mTOR and rpS6” value [2] of the same substance?
A: Its value is “possible exception”.

Q: And the “induction of apoptosis” value [3]?
A: Its value is “neither the compound 12B or 20B”.

Q: And the “Inhibition (phosphorylation of AKT at Ser 473)” value [4]?
A: Its value is “−−− (−−− <25% inhibition)”.
